In article PMC11811690 (Angewandte Chemie (International Ed. in English), 2024):

test system: Rif-resistant Mtb isolate (clinical isolate, rpoB mutant S531L); format: cell-based, Mycobacterium tuberculosis

| Structure (SMILES) | MIC Rif-resistant Mtb isolate, turbidity read-out |
| --- | --- |
| CC[C@H]1/C=C(\C)[C@@H](O)C/C=C/C=C(\CNCc2nnc(-c3ccccc3)o2)C(=O)O[C@H]([C@@H](C)O)C/C=C(C)/C=C(\C)[C@@H]1O[C@@H]1OC(C)(C)[C@@H](OC(=O)C(C)C)[C@H](O)[C@@H]1O [compound 16] | 4 to 8 µg/mL |
| CC[C@H]1/C=C(\C)[C@@H](O)C/C=C/C=C(\CNCc2nnc(-c3ccc(OC)c(OC)c3Cl)o2)C(=O)O[C@H]([C@@H](C)O)C/C=C(C)/C=C(\C)[C@@H]1O[C@@H]1OC(C)(C)[C@@H](OC(=O)C(C)C)[C@H](O)[C@@H]1O [compound 18] | 4 to 8 µg/mL |
| CC[C@H]1/C=C(\C)[C@@H](O)C/C=C/C=C(\CNc2ccc(C#N)cc2)C(=O)O[C@H]([C@@H](C)O)C/C=C(C)/C=C(\C)[C@@H]1O[C@@H]1OC(C)(C)[C@@H](OC(=O)C(C)C)[C@H](O)[C@@H]1O [compound 24] | 16-32 |
| CC[C@H]1/C=C(\C)[C@@H](O)C/C=C/C=C(\CN(C)Cc2nnc(-c3ccccc3)o2)C(=O)O[C@H]([C@@H](C)O)C/C=C(C)/C=C(\C)[C@@H]1O[C@@H]1OC(C)(C)[C@@H](OC(=O)C(C)C)[C@H](O)[C@@H]1O [compound 7] | 8 to 16 µg/mL |
| CC[C@H]1/C=C(\C)[C@@H](O)C/C=C/C=C(\CNc2ccc(C#N)cn2)C(=O)O[C@H]([C@@H](C)O)C/C=C(C)/C=C(\C)[C@@H]1O[C@@H]1OC(C)(C)[C@@H](OC(=O)C(C)C)[C@H](O)[C@@H]1O [compound 25] | 16-32 |
| CC[C@H]1/C=C(\C)[C@@H](O)C/C=C/C=C(\CNc2nc3ccccc3s2)C(=O)O[C@H]([C@@H](C)O)C/C=C(C)/C=C(\C)[C@@H]1O[C@@H]1OC(C)(C)[C@@H](OC(=O)C(C)C)[C@H](O)[C@@H]1O [compound 9] | 8 to 16 µg/mL |
| CC[C@H]1/C=C(\C)[C@@H](O)C/C=C/C=C(\CNc2nc(-c3ccccc3)cs2)C(=O)O[C@H]([C@@H](C)O)C/C=C(C)/C=C(\C)[C@@H]1O[C@@H]1OC(C)(C)[C@@H](OC(=O)C(C)C)[C@H](O)[C@@H]1O [compound 13] | 8 to 16 µg/mL |
| CC[C@H]1/C=C(\C)[C@@H](O)C/C=C/C=C(\CNCc2nnc(-c3ccc(C(F)(F)F)cc3)o2)C(=O)O[C@H]([C@@H](C)O)C/C=C(C)/C=C(\C)[C@@H]1O[C@@H]1OC(C)(C)[C@@H](OC(=O)C(C)C)[C@H](O)[C@@H]1O [compound 23] | 4-8 |
| CC[C@H]1/C=C(\C)[C@@H](O)C/C=C/C=C(\CNc2nc(COc3ccccc3)cs2)C(=O)O[C@H]([C@@H](C)O)C/C=C(C)/C=C(\C)[C@@H]1O[C@@H]1OC(C)(C)[C@@H](OC(=O)C(C)C)[C@H](O)[C@@H]1O [compound 10] | 8 to 16 µg/mL |
